Compound	logP
COCC(C)O (centres undefined)	-0.44
CC(O)COc1ccccc1 (centres undefined)	1.5
CCCOC(C)CO (centres undefined)	0.62
CC(CO)Oc1ccccc1 (centres undefined)	1.5
COC(C)COC(C)=O (centres undefined)	0.43
COCCCO	-0.44
COC(C)COC(C)CO (centres undefined)	-0.06
COC(C)COC(C)COC(C)CO (centres undefined)	0.31
COC(C)COC(C)COC(C)=O (centres undefined)	0.8

Results, then the compound that gave them:

logP	Compound
0.62	CCCOCC(C)O (centres undefined)
0.31	COCC(C)OCC(C)OCC(C)O (centres undefined)
1.9	CCCCOCC(C)OCC(C)OCC(C)O (centres undefined)
1.9	CCCCOC(C)COC(C)COC(C)CO (centres undefined)
0.99	CCCOCC(C)OCC(C)O (centres undefined)
1.15	CCCCOC(C)CO (centres undefined)
1.52	CCCCOCC(C)OCC(C)O (centres undefined)
1.15	CCCCOCC(C)O (centres undefined)
0.8	COCC(C)OCC(C)OC(C)=O (centres undefined)
0.99	CCCOC(C)COC(C)CO (centres undefined)
